Reference: US20250353827A1, “INDOLINE DERIVATIVES AS SEROTONERGIC AGENTS USEFUL FOR THE TREATMENT OF DISORDERS RELATED THERETO” (MINDSET PHARMA INC., priority 2022, published 2025)
“And” between values parts separate entries of the source, which are not always exact repeats. Equal values may be shown once. Read-outs that look alike come from different tables or passages of the source.

Tests used:
[1] = Liver microsomes stability, rat
[2] = molecular target: T1, human 5-HT2A (h5-HT2A) receptor (Homo sapiens, UniProt P28223); experiment: FLIPR assay, human 5-HT2A receptor under agonist mode; assay type: cell-based; conditions: for RFU@10 μM: RFU=Fmax−Fmin
T1 construct: expressed in transfected cells; cultured under G418 and hygromycin B selection
T1 sequence (P28223 whole entry): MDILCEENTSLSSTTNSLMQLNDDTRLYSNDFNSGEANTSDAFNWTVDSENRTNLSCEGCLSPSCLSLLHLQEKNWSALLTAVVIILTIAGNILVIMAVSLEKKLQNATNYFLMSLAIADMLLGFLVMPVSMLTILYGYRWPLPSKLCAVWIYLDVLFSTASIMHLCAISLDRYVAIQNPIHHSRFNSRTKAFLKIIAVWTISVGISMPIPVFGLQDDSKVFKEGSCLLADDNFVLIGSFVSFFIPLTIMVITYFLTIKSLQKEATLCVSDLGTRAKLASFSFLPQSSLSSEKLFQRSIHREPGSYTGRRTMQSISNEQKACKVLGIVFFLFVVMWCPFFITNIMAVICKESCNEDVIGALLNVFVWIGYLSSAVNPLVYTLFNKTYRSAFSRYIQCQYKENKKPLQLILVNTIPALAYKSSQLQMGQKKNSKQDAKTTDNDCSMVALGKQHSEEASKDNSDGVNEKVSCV
Method: I. Assessment of the Effect of Exemplary Compounds of Formula I Targeting on Human 5-HT2A (h5-HT2A) Receptor Under Agonist Mode
• 1. Cells were cultured in cell culture medium (DMEM containing 10% FBS, 1×penicillin-streptomycin 300 μg/ml G418 and 100 μg/ml hygromycin B) at 37° C., 5% (v/v) CO2. • 2. One day before the assays, the cells were detached using TrypLE™ Express and cells were counted using cell counter. Only cells with >85% viability were used for the assay. • 3. 20000 cells/well were seeded in 30 μl/well culture medium to a 384-well cell plate and cells were incubated overnight at 37° C., 5% (v/v) CO2. • 4. On the assay day, 2×dye solution was prepared following the manual of the FLIPR® Calcium 6 Assay Kit: i. The dye was diluted with assay buffer (20 mM HEPES in 1× HBSS, PH7.4); ii. Probenecid was added to the final concentration of 5 mM; iii. Vortex vigorously for 1-2 minutes. • 5. Medium was removed from cell plate by flicking the cell plate on towel papers. • 6. 10 μl of assay buffer and 10 μl of 2×dye solution was added to each well of the cell plate. • 7. The cell plate was placed on plate shaker, the plate was agitated at 600 rpm for 2 minutes. The plate was incubated at 37° C. for 2 hours followed by additional 15-minute incubation at 25° C. • 8. 3×compound in assay buffer was prepared: a. Reference compounds were diluted to required concentration with DMSO. The compounds were added to a 384-well compound plate; b. Serial dilutions were performed; c. 10 mM test compounds were added to the compound plate, and 3-fold serial dilutions were performed. d. Transfer 60 nl/well of compounds from source plate to a 384-well compound plate (Corning, 3657) by using an Echo; e. Add 20 μl/well assay buffer to the compound plate; f. Mix the plate on plate shaker for 2 mins; • 9. The cell plate, compound plate and tips were put into FLIPR, 10 μl of 3× compound was transferred to the cell plate per well with FLIPR.
• i. The normalized fluorescence reading (RFU) was calculated as shown below, where Fmax and Fmin stand for maximum and minimum of calcium signal during defined time window: RFU=Fmax−Fmin. • ii. Calculate the percentage activation using following equation:
[formula] • Iii. Calculate EC50 by fitting % activation against log of compound concentrations with Hill equation using XLfit.
Exemplary compounds of Formula I were evaluated functionally using FLIPR assay for their effect on h5-HT2A receptor under agonist mode.

[3] = Liver microsomes stability, mouse
Method: (§1) The objective of this study was to estimate in vitro metabolic stability of representative compounds of the application in pooled human and male mouse liver microsomes. The concentrations of parent compounds in reaction systems were evaluated by LC-MS/MS for estimating the stability in pooled human and male mouse liver microsomes. The in vitro intrinsic clearances of test compounds were determined as well.
(§2) A master solution in the “Incubation Plate” containing phosphate buffer, ultra-pure H2O, MgCl2 solution and liver microsomes was made according to Table 3. The mixture was pre-warmed at 37° C. water bath for 5 minutes.
(§3) 40 μL of 10 mM NADPH solution was added to each well. The final concentration of NADPH was 1 mM. The negative control samples were prepared by replacing NADPH with 40 μL of ultra-pure H2O. Samples were prepared in duplicate. Negative controls were prepared in singlet.
(§4) The reaction was started with the addition of 4 μL of 200 μM test compounds or control compounds to each master solution to get the final concentration of 2 μM. This study was performed in duplicate.
(§5) Aliquots of 50 μL were taken from the reaction solution at 0, 15, 30, 45 and 60 minutes. The reaction solutions were stopped by the addition of 4 volumes of cold methanol with IS (100 nM alprazolam, 200 nM imipramine, 200 nM labetalol and 2 μM ketoprofen). Samples were centrifuged at 3,220 g for 40 minutes. Aliquot of 90 μL of the supernatant was mixed with 90 μL of ultra-pure H2O and then was used for LC-MS/MS analysis.
(§6) LC/MS analysis was performed for all samples from this study using a Shimadzu liquid chromatograph separation system equipped with degasser DGU-20A5R; solvent delivery unit LC-30AD; system controller SIL-30AC; column oven CTO-30A; CTC Analytics HTC PAL System. Mass spectrometric analysis was performed using a Triple Quad™ 5500 instrument.
(§7) All calculations were carried out using Microsoft Excel. Peak areas were determined from extracted ion chromatograms. The slope value, k, was determined by linear regression of the natural logarithm of the remaining percentage of the parent drug vs. incubation time curve.
(§8) The in vitro half-life (in vitro t1/2) was determined from the slope value:
(§9) Conversion of the in vitro t1/2 (min) into the in vitro intrinsic clearance (in vitro CLint, in μL/min/mg proteins) was done using the following equation (mean of duplicate determinations): […]

[4] = Liver microsomes stability, human; conditions: for Predicted hepatic CL: human liver microsomes
Method: as §1, §2, §3, §4, §5, §6, §7, §8, §9

[5] = system: Male, C57BL/6J mice; experiment: Mouse head twitch; assay type: in vivo; conditions: for head twitches (mean): counted over 1 hr, male C57BL/6J mice; for other behavioural signs (locomotion, core body temperature, 5-HT syndrome) in words: psilocybin 3 and 10 mg/kg, 5-MeO DMT 3-30 mg/kg, II-1 0.3-30 mg/kg
Method: The effect of different doses of representative compounds of Formula I were evaluated on head-twitch response (HTR) and other behavioural responses as behavior-based models of psychedelic activity.
Male, C57BL/6J mice (body weight range 20-30 g) were dosed with the appropriate dose of test article, and following a 1-minute pre-treatment time, placed in individual observation chambers. Animals were visually assessed for the incidence head twitches continuously over a 1 hr period. Head twitches were defined as a rapid jerk of the head which was not elicited by an external tactile stimulus (Come and Pickering, Psychopharmacologia, 1967, 11(1): 65-78). Each head twitch was individually counted by a trained observer, and the data was expressed as the mean±SEM of 6-10 mice per group. Mice were used in a single experiment only.
The head twitch response of exemplary compound II-1 (1-30 mg/kg SC) was compared to 5-MeO DMT and psilocybin (FIG. 1, Table 6).

## CN(C)CCC1CNc2ccc(F)cc21 (centres unmarked) [Compound I-2, 2-(5-Fluoroindolin-3-yl)-N,N-dimethylethan-1-amine]
[1]; rat, With NADPH, 0 min
  Remaining Percentage: 100.00%
[1]; rat, With NADPH, 30 min
  Remaining Percentage: 14.82%
[1]; rat, With NADPH, 60 min
  Remaining Percentage: 3.66%
[1]; rat, Without NADPH, 0 min
  Remaining Percentage: 100.00%
[1]; rat, Without NADPH, 30 min
  Remaining Percentage: 106.67%
[1]; rat, Without NADPH, 60 min
  Remaining Percentage: 104.17%
[1]; rat, liver microsomes
  CLint scaled at 2 μM: 198 mL/min/kg
  Predicted hepatic CL: 43.15 mL/min/kg
  half-life at 2 μM: 12.6 min
  microsomal CLint at 2 μM: 110 µL/min/mg
[2]; 5-HT2A (FLIPR)
  RFU@10 μM: 622
[2]; 5-HT2A (FLIPR), read-out: EC50
  EC50: 107 nM
[3]; male, mouse, microsomes
  CLint scaled at 2 μM: 163 mL/min/kg
  half-life at 2 μM: 37.2 min
  microsomal CLint at 2 μM: 37.3 µL/min/mg
[3]; mouse liver microsomes
  Predicted hepatic CL: 57.99 mL/min/kg
[3]; mouse, With NADPH, 0 min
  Remaining Percentage: 100.00%
[3]; mouse, With NADPH, 30 min
  Remaining Percentage: 56.32%
[3]; mouse, With NADPH, 60 min
  Remaining Percentage: 32.69%
[3]; mouse, Without NADPH, 0 min
  Remaining Percentage: 100.00%
[3]; mouse, Without NADPH, 30 min
  Remaining Percentage: 108.70%
[3]; mouse, Without NADPH, 60 min
  Remaining Percentage: 97.83%
[4]
  Predicted hepatic CL: 1.73 mL/min/kg
[4]; human, With NADPH, 0 min
  Remaining Percentage: 100.00%
[4]; human, With NADPH, 30 min
  Remaining Percentage: 111.62%
[4]; human, With NADPH, 60 min
  Remaining Percentage: 95.59%
[4]; human, Without NADPH, 0 min
  Remaining Percentage: 100.00%
[4]; human, Without NADPH, 30 min
  Remaining Percentage: 115.22%
[4]; human, Without NADPH, 60 min
  Remaining Percentage: 108.70%
[4]; human, pooled liver microsomes
  CLint scaled at 2 μM: 1.89 mL/min/kg
  half-life at 2 μM: 921 min
  microsomal CLint at 2 μM: 1.5 µL/min/mg

## COc1ccc2[nH]cc(CCN(C)C)c2c1 [5-MeO DMT]
[5]; 1 mg/kg SC
  head twitches (mean): 3.0
[5]; 3 mg/kg SC
  head twitches (mean): 4.2
[5]; 10 mg/kg SC
  head twitches (mean): 7.8
[5]; 30 mg/kg SC
  head twitches (mean): 12.3
[5]; SC, dose range as in the sentence
  head twitch response (in words): monotonic increase in head twitches
[5]; SC
  other behavioural signs (locomotion, core body temperature, 5-HT syndrome) in words: behavioural signs associated with 5-HT syndrome

## CN(C)CCc1c[nH]c2cccc(O)c12 [Psilocin, psilocin, reference compound]
[2]; 5-HT2A (FLIPR)
  RFU@10 μM: 416 and 308

## CN(C)CCc1c[nH]c2ccccc12 [DMT, N,N-dimethyltryptamine, reference compound]
[2]; 5-HT2A (FLIPR)
  RFU@10 μM: 381
[2]; EC50, 5-HT2A (FLIPR)
  EC50: 364 nM

## COc1ccc2c(c1)C(CCN(C)C)CN2C (centres unmarked) [Compound I-3, 2-(5-Methoxy-1-methylindolin-3-yl)-N,N-dimethylethan-1-amine]
[2]; 5-HT2A (FLIPR)
  RFU@10 μM: 1014
[2]; 5-HT2A (FLIPR), read-out: EC50
  EC50: 404 nM

## CN(C)CCc1c[nH]c2cccc(OP(=O)(O)O)c12 [psilocybin]
[5]; 0.1 mg/kg SC
  head twitches (mean): 4.8
[5]; 0.3 mg/kg SC
  head twitches (mean): 6.3
[5]; 1 mg/kg SC
  head twitches (mean): 16.3
[5]; 3 mg/kg SC
  head twitches (mean): 7.8
[5]; 10 mg/kg SC
  head twitches (mean): 5.5
[5]; SC, 0.1-10 mg/kg tested
  dose at which head twitch response reached a peak: 1 mg/kg
[5]; SC
  other behavioural signs (locomotion, core body temperature, 5-HT syndrome) in words: decreased locomotion and decreased core body temperature

## O=C(O)Cc1ccccc1Nc1c(Cl)cccc1Cl [Diclofenac]
[1]; rat liver microsomes, 2 μM, 0.5 mg/mL
  T1/2: 14.62 min
[1]; rat, With NADPH, 0 min
  Remaining Percentage: 100.00%
[1]; rat, With NADPH, 30 min
  Remaining Percentage: 10.72%
[1]; rat, With NADPH, 60 min
  Remaining Percentage: 5.82%
[1]; rat, Without NADPH, 0 min
  Remaining Percentage: 100.00%
[1]; rat, Without NADPH, 30 min
  Remaining Percentage: 100.00%
[1]; rat, Without NADPH, 60 min
  Remaining Percentage: 96.90%
[1]; rat, liver microsomes
  Predicted hepatic CL: 41.66 mL/min/kg
  microsomal CLint at 2 μM: 94.8 µL/min/mg
[3]; male, mouse, microsomes
  half-life at 2 μM: 43.9 min
  microsomal CLint at 2 μM: 31.6 µL/min/mg
[3]; mouse liver microsomes
  Predicted hepatic CL: 54.52 mL/min/kg
  Scaled-up CLint: 138.28 mL/min/kg
[3]; mouse, With NADPH, 0 min
  Remaining Percentage: 100.00%
[3]; mouse, With NADPH, 30 min
  Remaining Percentage: 51.50%
[3]; mouse, With NADPH, 60 min
  Remaining Percentage: 38.74%
[3]; mouse, Without NADPH, 0 min
  Remaining Percentage: 100.00%
[3]; mouse, Without NADPH, 30 min
  Remaining Percentage: 105.81%
[3]; mouse, Without NADPH, 60 min
  Remaining Percentage: 102.49%
[4]
  Predicted hepatic CL: 18.43 mL/min/kg
[4]; human, With NADPH, 0 min
  Remaining Percentage: 100.00%
[4]; human, With NADPH, 30 min
  Remaining Percentage: 4.80%
[4]; human, With NADPH, 60 min
  Remaining Percentage: 1.80%
[4]; human, Without NADPH, 0 min
  Remaining Percentage: 100.00%
[4]; human, Without NADPH, 30 min
  Remaining Percentage: 91.86%
[4]; human, Without NADPH, 60 min
  Remaining Percentage: 91.86%

## COc1cc2c(cc1OC)C(CCN(C)C)CN2 (centres unmarked) [Compound I-33, 2-(5,6-Dimethoxyindolin-3-yl)-N,N-dimethylethan-1-amine]
[2]; 5-HT2A (FLIPR)
  RFU@10 μM: 286
